This is an account of results in paper PMC6820730, “Leu^8 and Pro^8 oxytocin agonism differs across human, macaque, and marmoset vasopressin 1a receptors” (Scientific Reports, 2019).

The subject of assay [1] is macaque AVPR1a. The assay is described as follows: Intact cell 125I-OVTA competition binding, CHO cells expressing macaque AVPR1a. Conditions: competition with 125I-OVTA in intact CHO cells, 3 h on ice, ± Std. Error, n = 3. As to the method:
(§1) Intact cell competition binding assays
(§2) Cells were washed four times with 100 µL ice-cold HGH-BSA, solubilized with 100 µL 0.2 N NaOH, and radioactivity was quantified with a gamma counter. Half-maximal inhibitory concentrations (IC50) were determined by plotting bound ^125I-OVTA vs. competitor concentration. IC50 values were then corrected using the Cheng-Prusoff equation with each receptor’s KD for ^125I-OVTA to produce Ki values for the competing ligands.
(§3) Binding affinities for ^125I-OVTA at each primate AVPR1a were calculated by subtracting nonspecific binding and then plotting bound ^125I-OVTA vs. free ^125I-OVTA. Because concentrations of ^125I-OVTA were not identical from experiment to experiment, technical replicates within each experiment (n = 3) were normalized and then corrected using the Cheng-Prusoff equation. […] Differences in Ca^2+ mobilization potency (EC50) and maximal response to OXT were determined by normalizing OXT-induced (Log M) Ca^2+ responses as a percentage of maximal (100%) AVP-induced Ca^2+ response. […] All best-fit data (Ki, EC50, and Ca^2+ maximal responses) were analyzed using the nonlinear least squares curve-fitting capabilities of GraphPad Prism.

The test system of assay [2] is marmoset AVPR1a. Kind of assay: Intact cell 125I-OVTA competition binding, CHO cells expressing marmoset AVPR1a. Conditions: competition with 125I-OVTA in intact CHO cells, 3 h on ice, ± Std. Error, n = 5. As to the method:
as §1, §2, §3

Assay [3] relates to macaque AVPR1a. Kind of assay: Ca2+ mobilization assay, CHO cells expressing macaque AVPR1a. It is filed as cell-based. As to the method:
(§4) Ca^2+ mobilization assays
as §3, with “. […] . Binding” for “Binding”, “response. We averaged across technical replicates (n = 3) within each biological replicate and then averaged across the biological replicates (n = 3), normalized the data, and tested for significant differences of best-fit LogEC50 using one-way ANOVA analyses.” for “response.”, “.” for “All best-fit data (Ki, EC50, and Ca^2+ maximal responses) were analyzed using the nonlinear least squares curve-fitting capabilities of GraphPad Prism.”

Assay [4] deals with marmoset AVPR1a. Kind of assay: Ca2+ mobilization assay, CHO cells expressing marmoset AVPR1a. Type of assay: cell-based. As to the method:
as §4
as §3, with “. […] . Binding” for “Binding”, “response. We averaged across technical replicates (n = 3) within each biological replicate and then averaged across the biological replicates (n = 3), normalized the data, and tested for significant differences of best-fit LogEC50 using one-way ANOVA analyses.” for “response.”, “.” for “All best-fit data (Ki, EC50, and Ca^2+ maximal responses) were analyzed using the nonlinear least squares curve-fitting capabilities of GraphPad Prism.”
In general terms: A change in cytosolic calcium serves as a functional read-out for many receptors and channels.

Another assay relates to untransfected CHO cells. The assay is described as follows: Ca2+ response in untransfected CHO cells. Type of assay: cell-based, Chinese hamster.
The target in assay [5] is T1, human AVPR1a (Homo sapiens, UniProt P37288). The assay is described as follows: Ca2+ mobilization assay, CHO cells expressing human AVPR1a. Type of assay: cell-based. Conditions: human AVPR1a in CHO cells; ± Std. Error, n = 6; read-out: Ca^2+ EC50.
T1 sequence (P37288 whole entry): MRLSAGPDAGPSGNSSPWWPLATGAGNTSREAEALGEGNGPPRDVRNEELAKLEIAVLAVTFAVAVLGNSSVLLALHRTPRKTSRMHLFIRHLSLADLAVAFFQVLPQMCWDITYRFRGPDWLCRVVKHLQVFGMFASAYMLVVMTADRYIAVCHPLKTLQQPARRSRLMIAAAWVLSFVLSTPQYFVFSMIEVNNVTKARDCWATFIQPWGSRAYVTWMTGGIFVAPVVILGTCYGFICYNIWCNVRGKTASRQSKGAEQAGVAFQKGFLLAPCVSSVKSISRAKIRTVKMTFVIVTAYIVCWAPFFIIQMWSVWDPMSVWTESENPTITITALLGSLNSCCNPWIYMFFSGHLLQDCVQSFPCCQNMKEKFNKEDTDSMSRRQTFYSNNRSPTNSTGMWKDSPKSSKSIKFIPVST
Assay [6] deals with T1, human AVPR1a. Kind of assay: Intact cell saturation binding of 125I-OVTA, human AVPR1a CHO clone. Here is the method: (§5) Intact cell saturation binding assays […] Cells were washed four times with 100 μL ice-cold HGH-BSA, solubilized with 100 μL 0.2 N NaOH, and radioactivity quantified with a gamma counter. We also counted aliquots of the used binding medium (i.e., free ^125I-OVTA) to quantify free radioligand CPM directly, eliminating any concerns about differential depletion of ligand due to differential receptor expression levels across species or time. […] Binding affinity for ^125I-OVTA was determined after correcting for non-specific binding by plotting specific bound/free vs. bound using a single-site binding equation (Graphpad Software Inc., La Jolla, CA). […] Binding affinities for ^125I-OVTA at each primate AVPR1a were calculated by subtracting nonspecific binding and then plotting bound ^125I-OVTA vs. free ^125I-OVTA. Because concentrations of ^125I-OVTA were not identical from experiment to experiment, technical replicates within each experiment (n = 3) were normalized and then corrected using the Cheng-Prusoff equation. […] We averaged across technical replicates (n = 3) within each biological replicate and then averaged across the biological replicates (n = 3), normalized the data, and tested for significant differences of best-fit LogEC50 using one-way ANOVA analyses.

Assay [7] deals with macaque AVPR1a. The assay is described as follows: Intact cell saturation binding of 125I-OVTA, macaque AVPR1a CHO clone. Conditions: intact CHO cells, 3 h on ice. As to the method:
as §5

The subject of assay [8] is marmoset AVPR1a. Kind of assay: Intact cell saturation binding of 125I-OVTA, marmoset AVPR1a CHO clone. The conditions noted are these: intact CHO cells, 3 h on ice. Here is the method: as §5
For assay [9], the target named is human, marmoset, and macaque AVPR1a. Kind of assay: Saturation binding of 125I-OVTA, summary over the three primate AVPR1a. The conditions noted are these: range over the three species. As to the method:
Intact cell saturation binding assays […] Cells were washed four times with 100 µL ice-cold HGH-BSA, solubilized with 100 µL 0.2 N NaOH, and radioactivity quantified with a gamma counter. We also counted aliquots of the used binding medium (i.e., free ^125I-OVTA) to quantify free radioligand CPM directly, eliminating any concerns about differential depletion of ligand due to differential receptor expression levels across species or time. […] Binding affinity for ^125I-OVTA was determined after correcting for non-specific binding by plotting specific bound/free vs. bound using a single-site binding equation (Graphpad Software Inc., La Jolla, CA).

In assay [10] the target is human, macaque, and marmoset OXTR. More on the design: method as in Taylor et al., 2018. Conditions: range over the three species; ref Taylor et al., 2018; read-out: Affinity (Kd) of 125I-OVTA at human, macaque, and marmoset OXTR; cited from earlier work.

Where “and” joins values, the source holds several entries; their conditions need not be identical. Equal entries are not always repeated. Starred links: 1 amine or outer side, 2 acyl side, 3 side chain; linkers in the order of their positions; H or OH if unused. Positions of bridges follow the written chain, without caps; N, C: chain ends. Non-standard residues stand in square brackets, D forms with d. Residues, ends and D or L forms follow the SMILES beside them. Tyr(3-I) = N[C@@H](Cc1ccc(O)c(I)c1)C(=O)O; X1 = O=C(CC1(S[*:2])CCCCC1)[*:1]; Orn = NCCC[C@H](N)C(=O)O

Turning to `N=C(N)NCCC[C@H](NC(=O)[C@@H]1CCCN1C(=O)[C@@H]1CSSC[C@H](N)C(=O)N[C@@H](Cc2ccc(O)cc2)C(=O)N[C@@H](Cc2ccccc2)C(=O)N[C@@H](CCC(N)=O)C(=O)N[C@@H](CC(N)=O)C(=O)N1)C(=O)NCC(N)=O` [AVP, arginine vasopressin], the Ki with macaque AVPR1a [1] is 1.2 nM and 1.21 nM; in the assay on marmoset AVPR1a [2], 0.9 nM and 0.86 nM. Moreover, the EC50 with macaque AVPR1a [3] (macaque AVPR1a in CHO cells, ± Std. Error, n = 3, read-out: Ca^2+ EC50) was 0.3 nM and 0.31 nM; in the assay on marmoset AVPR1a [4] (marmoset AVPR1a in CHO cells, ± Std. Error, n = 3, read-out: Ca^2+ EC50) it was 0.05 ± 0.05 nM. Further, the “Maximal Ca^2+ response, comparison among ligands” value in the assay with macaque AVPR1a [3] (macaque AVPR1a, F(2,6) = 0.23, p = 0.80) was “equal maximal Ca^2+ responses”. Besides, in the assay with marmoset AVPR1a [4] (10 nM AVP alone, marmoset AVPR1a), the “Ca^2+ response of AVP alone, % of the maximal Ca^2+ response” value is “approximately 80%”. Further, the “Ca^2+ response” value in the assay with untransfected CHO cells (AVP 100 mM to 0.1 nM (so in the source)) is “no Ca^2+ response”.
For the compound `CC[C@H](C)[C@@H]1NC(=O)[C@H](Cc2ccc(O)cc2)NC(=O)[C@@H](N)CSSC[C@@H](C(=O)N2CCC[C@H]2C(=O)N2CCC[C@H]2C(=O)NCC(N)=O)NC(=O)[C@H](CC(N)=O)NC(=O)[C@H](CCC(N)=O)NC1=O` [Pro^8-OXT] (H-CYIQNCPPG-NH2; disulfide 1-6), the EC50 on human AVPR1a [5] was 36.2 ± 0.25 nM.
On human AVPR1a [6] (human AVPR1a CHO clone, maximal binding of 125I-OVTA), `CC[C@H](C)[C@@H]1NC(=O)[C@H](Cc2ccc(OC)cc2)NC(=O)CC2(CCCCC2)SSC[C@@H](C(=O)N2CCC[C@H]2C(=O)N[C@@H](CCCN)C(=O)N[C@@H](Cc2ccc(O)c(I)c2)C(N)=O)NC(=O)[C@H](CC(N)=O)NC(=O)[C@H]([C@@H](C)O)NC1=O` [^125I-OVTA, ^125I-ornithine vasotocin analog] (Y(Me)ITNCP[Orn][Tyr(3-I)]-NH2; linker N-5 via X1; C-terminus assumed) came in with a Bmax of 6.21 fmol/well. For the same compound, the Kd at human AVPR1a [6] (human AVPR1a, saturation binding, intact CHO cells, 3 h on ice) is 1.17 nM; with macaque AVPR1a [7], 0.331 nM; in the assay on marmoset AVPR1a [8], 0.944 nM; in assay [9], 0.331 to 1.17 nM; in [10] it was 0.161 to 0.481 nM.
As for “Lysophosphatidic acid [Lysophosphatidic acid (LPA)]”, in the assay with untransfected CHO cells (10 mM (so in the source)), the “Ca^2+ response” value is on record as “do show a Ca^2+ response”.

Broadly, the Ki is the dissociation constant of the complex between target and ligand, obtained from inhibition or displacement. Read a low Ki as higher affinity. As a reminder, the EC50 is the midpoint of the concentration-response curve. For orientation: Kd means the free concentration of one partner at which half of the binding sites on the other are occupied at equilibrium, for simple one-to-one binding.
